Assays:
[1] = system: Lungs cancer cells A549
[2] = system: Eschericia coli; assay: Bacterial panel testing, MIC by broth microdilution; type: cell-based; settings: 20-24 hours growth
Outline: (§1)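 Strains grown 2-4 h at 37 °C in Mueller-Hinton or Brain Heart infusion broth, standardized to McFarland density and diluted. Compound (10 μg/ml in DMSO) serially two-fold diluted across plate in inoculated media; rifampicin control. Growth 20-24 h, clear wells scored for MIC.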

[3] = system: Pseudomonas aeruginosa; assay: as above; type: cell-based; settings: 20-24 hours growth
Outline: as §1

[4] = system: Enterococcus faecium; assay: as above; type: cell-based; settings: 20-24 hours growth
Outline: as §1

[5] = system: Salmonella choleraesuis; assay: as above; type: cell-based; settings: 20-24 hours growth
Outline: as §1

[6] = system: Staphylococcus aureus; assay: as above; type: cell-based; settings: 20-24 hours growth
Outline: as §1

[7] = system: P. aeruginosa (susceptible clinical isolate); assay: Potentiation of clinically used antibiotics, susceptible clinical isolate; type: cell-based, Pseudomonas aeruginosa; settings: Table 3; antibiotic alone or mixed with PP compound
Protocol: (§2) One to three colonies of bacteria were picked from an Mueller-Hinton or Brain Heart infusion agar plate (depending on the bacterial strain) and transferred to 3 ml Mueller-Hinton broth or Brain Heart infusion media (depending on the bacterial strain). Bacteria were allowed to grow for 2-4 hours in an incubator at 37° C. Bacteria-inoculated media were dispersed in 0.9% saline to match McFarland standard density. 100 μl standardized inoculation was added to 20 ml media (dilution 1). 10 μl of the new dilution was added to 990 μl media and mixed (dilution 2). 10 μl of dilution 2 was spread on an agar plate and allowed to grow overnight. Colonies were then […].
(§3) Test compound was diluted to 10 μg/ml in dimethylsulfoxide. Four μl of Rifampicin antibiotic was loaded into row H, column 2.
(§4) All wells were then filled with 100 μl of inoculated media (dilution 1 from Example 1). A further 100 μl of the inoculated media was then added to column 2 and the contents are pipetted to thoroughly mix the contents. A full 100 μl was then transferred from column 2 and mixed into column 3. This process was continued from left to right until columns 2-12 were serially diluted, and the final draw from column 12 was discarded. The plates were covered with 3M sealing tape (plates containing Enterococcus faecium were sealed with Air Pore sealing tape) and allowed to grow for 20-24 hours. Cytotoxic wells (clear wells) are then scored and the potency of the compound was determined.
Numerous pathogenic bacteria have developed a resistance to many clinically used antibiotics. Following the protocols described herein, various compounds were mixed with clinically used antibiotics to treat Pseudomonas aeruginosa (P. aeruginosa).

[8] = system: Pseudomonas aeruginosa clinical isolate, multi-drug resistant; assay: Potentiation of clinically used antibiotics, multi-drug resistant clinical isolate; type: cell-based; settings: Table 4, antibiotic alone or mixed with PP compound
Protocol: as §2, §3
as §4, with “The plates were covered with 3M sealing tape (plates containing Enterococcus faecium were sealed with Air Pore sealing tape) and allowed to grow for 20-24 hours.” left out, “determined. […]” for “determined.”

SMILES: O=C(NCC1OC2OC3C(CNC(=O)C4CCCN4)OC(OC4C(CNC(=O)C5CCCN5)OC(OC5C(CNC(=O)C6CCCN6)OC(OC6C(CNC(=O)C7CCCN7)OC(OC7C(CNC(=O)C8CCCN8)OC(OC8C(CNC(=O)C9CCCN9)OC(OC1C(O)C2O)C(O)C8O)C(O)C7O)C(O)C6O)C(O)C5O)C(O)C4O)C(O)C3O)C1CCCN1.O=C(O)C(F)(F)F.O=C(O)C(F)(F)F.O=C(O)C(F)(F)F.O=C(O)C(F)(F)F.O=C(O)C(F)(F)F.O=C(O)C(F)(F)F.O=C(O)C(F)(F)F (stereo not shown)
- Mammalian Cytotoxicity IC50 [1]: 524 µg/mL
- MIC EC [2]: >200 µg/mL
- MIC PA [3]: >200 µg/mL
- MIC EF [4]: >200 µg/mL
- MIC SC [5]: >200 µg/mL
- MIC SA [6]: >200 µg/mL

SMILES: Cl.Cl.Cl.Cl.Cl.Cl.Cl.Cl.Cl.Cl.Cl.Cl.Cl.Cl.NCCCC[C@@H](N)C(=O)NC[C@H]1O[C@@H]2O[C@H]3[C@H](O)[C@@H](O)[C@@H](O[C@H]4[C@H](O)[C@@H](O)[C@@H](O[C@H]5[C@H](O)[C@@H](O)[C@@H](O[C@H]6[C@H](O)[C@@H](O)[C@@H](O[C@H]7[C@H](O)[C@@H](O)[C@@H](O[C@H]8[C@H](O)[C@@H](O)[C@@H](O[C@H]1[C@H](O)[C@H]2O)O[C@@H]8CNC(=O)[C@H](N)CCCCN)O[C@@H]7CNC(=O)[C@H](N)CCCCN)O[C@@H]6CNC(=O)[C@H](N)CCCCN)O[C@@H]5CNC(=O)[C@H](N)CCCCN)O[C@@H]4CNC(=O)[C@H](N)CCCCN)O[C@@H]3CNC(=O)[C@H](N)CCCCN
- Mammalian Cytotoxicity IC50 [1]: 2990 µg/mL
- MIC EC [2]: >200 µg/mL
- MIC PA [3]: >200 µg/mL
- MIC EF [4]: >200 µg/mL
- MIC SC [5]: >200 µg/mL
- MIC SA [6]: >200 µg/mL

SMILES: I.I.I.I.I.I.I.N=C(N)SCC1OC2OC3C(CSC(=N)N)OC(OC4C(CSC(=N)N)OC(OC5C(CSC(=N)N)OC(OC6C(CSC(=N)N)OC(OC7C(CSC(=N)N)OC(OC8C(CSC(=N)N)OC(OC1C(O)C2O)C(O)C8O)C(O)C7O)C(O)C6O)C(O)C5O)C(O)C4O)C(O)C3O (stereo not shown)
- Mammalian Cytotoxicity IC50 [1]: 480 µg/mL
- MIC EC [2]: >200 µg/mL
- MIC PA [3]: >200 µg/mL
- MIC EF [4]: >200 µg/mL
- MIC SC [5]: >200 µg/mL
- MIC SA [6]: >200 µg/mL

SMILES: Cl.Cl.Cl.Cl.Cl.Cl.NCCCCSCC1OC2OC3C(CSCCCCN)OC(OC4C(CSCCCCN)OC(OC5C(CSCCCCN)OC(OC6C(CSCCCCN)OC(OC7C(CSCCCCN)OC(OC1C(O)C2O)C(O)C7O)C(O)C6O)C(O)C5O)C(O)C4O)C(O)C3O (stereo not shown)
- Mammalian Cytotoxicity IC50 [1]: 589 µg/mL
- MIC EC [2]: >200 µg/mL
- MIC PA [3]: >200 µg/mL
- MIC EF [4]: >200 µg/mL
- MIC SC [5]: >200 µg/mL
- MIC SA [6]: >200 µg/mL

SMILES: COc1cccc(OC)c1C(=O)N[C@@H]1C(=O)N2[C@@H]1SC(C)(C)[C@@H]2C(=O)O [Methicillin]
- Activity of known antibiotics alone or in combination with compounds of the invention, P. aeruginosa (susceptible clinical isolate) [7]: >100

SMILES: CCn1cc(C(=O)O)c(=O)c2cc(F)c(N3CCNCC3)cc21 [Norfloxacin]
- MIC [8]: > 100 µg/mL

SMILES: CC1(C)S[C@@H]2[C@H](NC(=O)COc3ccccc3)C(=O)N2[C@H]1C(=O)O [Penicillin V]
- Activity of known antibiotics alone or in combination with compounds of the invention, P. aeruginosa (susceptible clinical isolate) [7]: >100

SMILES: CN[C@H](CC(C)C)C(=O)N[C@H]1C(=O)N[C@@H](CC(N)=O)C(=O)N[C@H]2C(=O)N[C@H]3C(=O)N[C@H](C(=O)N[C@H](C(=O)O)c4cc(O)cc(O)c4-c4cc3ccc4O)[C@H](O)c3ccc(c(Cl)c3)Oc3cc2cc(c3O[C@@H]2O[C@H](CO)[C@@H](O)[C@H](O)[C@H]2O[C@H]2C[C@](C)(N)[C@H](O)[C@H](C)O2)Oc2ccc(cc2Cl)[C@H]1O [Vancomycin]
- Activity of known antibiotics alone or in combination with compounds of the invention, P. aeruginosa (susceptible clinical isolate) [7]: >100

— patent publication US20110071108A1, “Beta-Cyclodextrin Derivatives as Antibacterial Agents” (Pinnacle Pharmaceuticals, Inc., priority 2005, published 2011)
